Experimental data as given in patent EP4745130A1, “CRYSTAL FORMS OF TUBULIN-SRC DUAL-TARGETING INHIBITOR, PREPARATION METHOD THEREFOR AND USE THEREOF” (Hubei Bio-Pharmaceutical Industrial Technological Institute …, priority 2023, dated 2025).
Where a name gives a salt, the structure may show the parent alone.

Assays:
[1] = Hygroscopicity test by dynamic vapor sorption (DVS); format: physicochemical; conditions: for hygroscopicity: DVS, 25°C, 0%RH to 95%RH
Protocol: The dynamic vapor sorption (DVS) curve was collected on DVS IntrInsic from SMS (surface measurement systems). The relative humidity at 25°C was corrected using the deliquescence points of LiCl, Mg(NO3)2, and KCl. Table 18 DVS test parameters
The percentage change in sample mass was collected under constant temperature at 25°C as humidity varied from 0%RH to 95%RH.

[2] = Solid-state stability (XRPD and HPLC after open storage); format: physicochemical; conditions: for Crystal form: XRPD
Protocol: The purity test, dynamic solubility test, and stability test in the assay were measured using an Agilent 1260 high-performance liquid chromatograph, and the salt formation molar ratio of ions was tested by ion chromatography, and the analytical conditions are shown in Table 19 and Table 20. Table 19 High-performance liquid chromatography test conditions

[3] = Heating / variable temperature XRPD (VT-XRPD), crystal form conversion; format: physicochemical
Protocol: (§1) The XRPD pattern was collected on an X-ray powder diffraction analyzer produced by PANalytacal, and the scanning parameters are shown in Table 16. Table 16 XRPD test parameters
The free form crystal form B sample was obtained by dissolving the compound of Formula I in MeOH, removing the solvent by rotary evaporation under reduced pressure, and then transferring the resulting gel-like sample for vacuum drying at 50°C. The XRPD and TGA/DSC characterization results are shown in FIGS. 4-6, and the XRPD diffraction peak data of the free form crystal form B are shown in Table 23. […] The TGA weight loss of the free form crystal form B is low, and the free form crystal form B is an anhydrous crystal form.
Combined with the TGA/DSC and ^1H NMR results of the crystal form A of the phosphate salt, the crystal form A of the phosphate salt was a hydrate, which dehydrated under heating conditions and converted to anhydrous crystal form B of the phosphate salt.

[4] = Dynamic solubility experiment at 37°C (water, SGF, FaSSIF, FeSSIF); conditions: for S: solubility: solid feed 10 mg/mL; for pH: pH value of the filtrate
Protocol: (§2) Rotating mixing was carried out at 37°C at a solid feed concentration of 10 mg/mL (calculated as the compound of Formula I). […] After sampling at each time point, the samples were centrifuged (10000 rpm) and filtered (0.45 µm PTFE filter head), and the HPLC concentration and pH value of the filtrate were measured.
(§3) 100 mg of NaCl and 50 mg of Triton X-100 were weighed into a 50 mL volumetric flask, and purified water was added to complete dissolution. 816 µL of 1 M hydrochloric acid was added thereto, and the pH was adjusted to 1.8 with 1 M hydrochloric acid or 1 M NaOH solution. Purified water was added to make up to volume.
(§4) 340 mg of anhydrous NaH2PO4 and 620 mg of NaCl were weighed into a 100 mL volumetric flask. Purified water was added to complete dissolution, followed by addition of 55.44 µL of 50% NaOH solution, and the pH was adjusted to 6.5 using 1M HCl or 1M NaOH solution. Purified water was added to make up to volume. 110 mg of SIF powder was then weighed into a 50 mL volumetric flask, added with the above solution to complete dissolution and make up to volume.
(§5) 0.82 mL of glacial acetic acid and 1.18 g of NaCl were added to a 100 mL volumetric flask. Purified water was added to complete dissolution, followed by addition of 528 µL of 50% NaOH solution, and the pH was adjusted to 5.0 using 1M HCl or 1M NaOH solution. Purified water was added to make up to volume. 560 mg of SIF powder was then weighed into a 50 mL volumetric flask, added with the above solution to complete dissolution and make up to volume.

[5] = Variable humidity XRPD (VH-XRPD); format: physicochemical
Description: as §1
Under low-humidity conditions (e.g., 30% RH), the sample reverts to the anhydrous crystal form A of the fumarate salt.

Protocol for physchem: as §2, §3, §4, §5

Row | Compound | Purity (area%) ([2]; 25°C/60%RH/open, 1 week) | Relative to initial (%) ([2]; 25°C/60%RH/open, 1 week) | Crystal form ([2]; 25°C/60%RH/open, 1 week) | Purity (area%) ([2]; 40°C/75%RH/open, 1 week) | Relative to initial (%) ([2]; 40°C/75%RH/open, 1 week) | Crystal form ([2]; 40°C/75%RH/open, 1 week) | Purity (area%) ([2]; Initial) | S: solubility ([4]; FaSSIF, 1 hour, 60 min) | S: solubility ([4]; FaSSIF, 4 hours, 240 min) | S: solubility ([4]; FaSSIF, 24 hours, 1440 min) | S: solubility ([4]; H2O, 1 hour, 60 min) | S: solubility ([4]; H2O, 4 hours, 240 min) | S: solubility ([4]; H2O, 24 hours, 1440 min) | pH ([4]; FaSSIF, 1 hour) | pH ([4]; FaSSIF, 4 hours) | pH ([4]; FaSSIF, 24 hours) | pH ([4]; FeSSIF, 1 hour) | pH ([4]; FeSSIF, 4 hours) | pH ([4]; FeSSIF, 24 hours) | pH ([4]; H2O, 1 hour) | further results
1 | Cc1cc(OCCN2C[C@H]3COC[C@H]3C2)ccc1-c1ccc(CC(=O)NCc2ccccc2)nc1 [Crystal form A of phosphate salt] | 97.84 area% | 100.2% | Crystal form A of phosphate salt | 97.55 area% | 99.9% | Crystal form A of phosphate salt | 97.62 area% | 6630 µg/mL | 6320 µg/mL | 6140 µg/mL | 9830 µg/mL | 9650 µg/mL | 9120 µg/mL | 5.9 | 5.9 | 5.9 | 4.9 | 4.9 | 4.9 | 5.3 | hygroscopicity ([1]; listed as crystal form A of the phosphate salt): rapidly dehydrates below 10% RH; crystal form after heating ([3]; heating to 150°C under nitrogen, cooling to 30°C, exposing to air): conversion to free form crystal form B; crystal form after purging ([3]; purging under N2 for 20 min): remained unchanged; S: solubility ([4]; FeSSIF, 1 hour, 60 min): 5130 µg/mL; S: solubility ([4]; FeSSIF, 4 hours, 240 min): 4120 µg/mL; S: solubility ([4]; FeSSIF, 24 hours, 1440 min): 3730 µg/mL; S: solubility ([4]; SGF, 1 hour, 60 min): 9140 µg/mL; S: solubility ([4]; SGF, 4 hours, 240 min): 9670 µg/mL; S: solubility ([4]; SGF, 24 hours, 1440 min): 9070 µg/mL; pH ([4]; H2O, 4 hours): 5.4; pH ([4]; H2O, 24 hours): 5.3; pH ([4]; SGF, 1 hour): 3.4; pH ([4]; SGF, 4 hours): 3.4; pH ([4]; SGF, 24 hours): 3.4
2 | Cc1cc(OCCN2C[C@H]3COC[C@H]3C2)ccc1-c1ccc(CC(=O)NCc2ccccc2)nc1 [Crystal form A of fumarate salt] | 97.02 area% | 100.0% | Crystal form A of fumarate salt | 97.09 area% | 100.1% | Crystal form A of fumarate salt | 96.99 area% | 8720 µg/mL | 8940 µg/mL | 8240 µg/mL | 9440 µg/mL | 9720 µg/mL | 9380 µg/mL | 4.3 | 4.4 | 4.4 | 4.6 | 4.6 | 4.6 | 4.0 | hygroscopicity ([1]; listed as crystal form A of the fumarate salt): significantly hygroscopic above 70% RH; weight change in DVS test ([1]; high-humidity conditions (>70% RH)): significant weight gain; solubility at 1 h (physchem; fessif): 3630 µg/mL; solubility at 4 h (physchem; fessif): 3600 µg/mL; solubility at 24 h (physchem; fessif): 3610 µg/mL; solubility at 1 h (physchem; sgf): 9650 µg/mL; solubility at 4 h (physchem; sgf): 9820 µg/mL; solubility at 24 h (physchem; sgf): 9170 µg/mL; XRPD change at high humidity ([5]; placed at 85% RH): shift in diffraction peaks; crystal form after return to low humidity ([5]; returned to 30% RH): converted back to the crystal form A of the fumarate salt; pH ([4]; H2O, 4 hours): 4.0; pH ([4]; H2O, 24 hours): 4.0; pH ([4]; SGF, 1 hour): 3.4; pH ([4]; SGF, 4 hours): 3.4; pH ([4]; SGF, 24 hours): 3.4
